Experimental data taken from patent publication US12589156B2, “Benzimidazole and benzimidazolone based protac compounds for the targeted degradation of leucine rich repeat kinase 2 (LRRK2)” (Arvinas Operations, Inc., priority 2023, dated 2026).

Biological target: T1, WT LRRK2 (Homo sapiens, UniProt Q5S007)
T1 construct: endogenous in cells; host or cells: HEK293 (endogenous LRRK2 gene knock-in tagged with HiBit; stably expressing CMV-driven firefly luciferase)
Assay: LRRK2 HiBit degradation assay (Nano-Glo Dual Luciferase) in HEK293 cells with HiBit-tagged endogenous LRRK2
Type: cell-based
Conditions: for Dmax: maximal degradation
How it was run: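 HEK293 cells carrying endogenous C-terminally HiBit-tagged LRRK2 and stably expressing CMV-driven firefly luciferase were treated for 24 h at 37° C with an 11-point 1:3 series from a 1 μM final top concentration. Nano-Glo Dual Luciferase read LRRK2-HiBit against firefly signal. Alamar Blue gave viability, and signals were normalized to DMSO median before curve fitting.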

[1] = HEK293, Table 2, HiBit-tagged LRRK2 in HEK293 cells, 24 hours treatment
[2] = HEK293, Table 3, comparison with direct comparators
[3] = Table 2, HiBit-tagged LRRK2 in HEK293 cells, 24 hours treatment, starting concentration 1 μM
[4] = Table 3, comparison with direct comparators, HiBit-tagged LRRK2 in HEK293 cells, 24 hours treatment

T1 sequence (Q5S007 whole entry): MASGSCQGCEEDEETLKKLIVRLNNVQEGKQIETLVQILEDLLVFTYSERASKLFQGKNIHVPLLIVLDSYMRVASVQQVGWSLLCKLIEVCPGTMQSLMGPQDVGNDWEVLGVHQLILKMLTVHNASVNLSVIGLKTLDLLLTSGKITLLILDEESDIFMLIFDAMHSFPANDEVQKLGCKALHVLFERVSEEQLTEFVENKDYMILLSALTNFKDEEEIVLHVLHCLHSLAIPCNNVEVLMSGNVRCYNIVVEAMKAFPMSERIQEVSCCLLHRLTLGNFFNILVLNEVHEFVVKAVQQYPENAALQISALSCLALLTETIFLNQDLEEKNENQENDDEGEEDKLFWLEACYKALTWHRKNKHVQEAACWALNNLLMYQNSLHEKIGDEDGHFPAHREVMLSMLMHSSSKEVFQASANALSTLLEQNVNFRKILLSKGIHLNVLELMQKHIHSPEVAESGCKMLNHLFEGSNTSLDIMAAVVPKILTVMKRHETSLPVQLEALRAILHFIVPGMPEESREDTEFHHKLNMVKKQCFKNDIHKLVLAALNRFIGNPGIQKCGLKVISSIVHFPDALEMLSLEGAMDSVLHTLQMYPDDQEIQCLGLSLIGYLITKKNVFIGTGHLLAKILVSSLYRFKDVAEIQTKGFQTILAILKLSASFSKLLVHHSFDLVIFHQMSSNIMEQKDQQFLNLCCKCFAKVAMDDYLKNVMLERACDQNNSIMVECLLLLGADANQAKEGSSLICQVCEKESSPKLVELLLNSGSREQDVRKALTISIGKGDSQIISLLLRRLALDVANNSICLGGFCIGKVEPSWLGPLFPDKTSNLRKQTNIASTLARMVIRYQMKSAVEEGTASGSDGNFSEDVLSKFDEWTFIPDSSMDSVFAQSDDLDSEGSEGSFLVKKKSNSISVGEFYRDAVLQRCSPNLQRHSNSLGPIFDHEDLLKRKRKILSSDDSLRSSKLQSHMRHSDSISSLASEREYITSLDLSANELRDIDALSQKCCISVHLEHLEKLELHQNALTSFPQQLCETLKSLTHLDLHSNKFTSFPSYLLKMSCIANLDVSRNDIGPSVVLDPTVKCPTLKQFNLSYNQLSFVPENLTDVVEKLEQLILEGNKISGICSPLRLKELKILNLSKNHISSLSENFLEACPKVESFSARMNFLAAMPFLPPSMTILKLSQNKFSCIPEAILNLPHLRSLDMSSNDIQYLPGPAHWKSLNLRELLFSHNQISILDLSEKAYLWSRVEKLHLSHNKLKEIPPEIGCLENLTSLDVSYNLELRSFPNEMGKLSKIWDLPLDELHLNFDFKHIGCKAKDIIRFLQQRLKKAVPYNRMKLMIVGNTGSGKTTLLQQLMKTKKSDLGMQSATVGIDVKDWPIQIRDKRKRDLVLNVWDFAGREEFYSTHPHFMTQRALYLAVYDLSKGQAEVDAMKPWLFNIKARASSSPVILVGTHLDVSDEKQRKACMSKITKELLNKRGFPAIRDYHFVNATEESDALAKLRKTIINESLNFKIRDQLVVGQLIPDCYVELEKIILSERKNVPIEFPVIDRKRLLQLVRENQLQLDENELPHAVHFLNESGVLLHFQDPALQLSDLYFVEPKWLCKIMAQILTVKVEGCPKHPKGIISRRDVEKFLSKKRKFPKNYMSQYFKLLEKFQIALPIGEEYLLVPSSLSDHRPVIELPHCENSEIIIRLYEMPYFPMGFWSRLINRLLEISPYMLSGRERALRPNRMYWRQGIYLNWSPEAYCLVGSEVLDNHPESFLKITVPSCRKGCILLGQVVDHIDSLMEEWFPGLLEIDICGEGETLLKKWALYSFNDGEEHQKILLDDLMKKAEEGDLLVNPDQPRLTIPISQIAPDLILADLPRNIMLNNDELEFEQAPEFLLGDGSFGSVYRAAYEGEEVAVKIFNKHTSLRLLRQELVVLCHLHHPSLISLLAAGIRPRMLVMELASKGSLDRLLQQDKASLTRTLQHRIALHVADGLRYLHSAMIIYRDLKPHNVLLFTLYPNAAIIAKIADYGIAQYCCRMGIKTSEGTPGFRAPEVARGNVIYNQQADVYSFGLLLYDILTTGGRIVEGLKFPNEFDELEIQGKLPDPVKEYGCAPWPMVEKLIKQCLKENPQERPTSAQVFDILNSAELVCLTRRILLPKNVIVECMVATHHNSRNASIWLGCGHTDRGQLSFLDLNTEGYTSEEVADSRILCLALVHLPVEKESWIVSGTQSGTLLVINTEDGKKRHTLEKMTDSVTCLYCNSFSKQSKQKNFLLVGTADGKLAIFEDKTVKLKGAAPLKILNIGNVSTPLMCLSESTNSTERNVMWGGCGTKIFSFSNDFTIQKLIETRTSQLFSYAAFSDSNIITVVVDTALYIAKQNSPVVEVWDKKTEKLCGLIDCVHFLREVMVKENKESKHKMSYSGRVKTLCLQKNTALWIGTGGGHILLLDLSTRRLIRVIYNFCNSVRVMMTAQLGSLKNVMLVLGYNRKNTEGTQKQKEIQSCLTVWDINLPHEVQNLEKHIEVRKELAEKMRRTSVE

Row | SMILES | Dmax [1] [%] | Dmax [2] [%] | DC50 [3] [nM] | DC50 [4] [nM] | Dmax (Table 2, HiBit-tagged LRRK2 in HEK293 cells, 24 hours treatment) [%] | increase in WT LRRK2 DC50 activity when compared to Comparator Example (versus comparator bearing a 3-(4-methoxy-1-oxoisoindolin-2-yl)piperidine-2,6-dione group) [fold]
1 | CC1(Oc2ccc3[nH]nc(-c4cc(N5CCC(CN6CCN(CC7CCN(c8cccc9c8ncn9C8CCC(=O)NC8=O)CC7)CC6(C)C)CC5)ncn4)c3c2)CC1 (centres unmarked) [Compound 69, 3-{4-[4-({3,3-dimethyl-4-[(1-{6-[5-(1-methylcyclopropoxy)-1H-indazol-3-yl]pyrimidin-4-yl}piperidin-4-yl)methyl]piperazin-1-yl}methyl)piperidin-1-yl]-1H-1,3-benzodiazol-1-yl}piperidine-2,6-dione] | 50 | 50 | 5 | 5 |  | 
2 | COc1ccc2[nH]nc(-c3cc(N4CCN(C[C@H]5CC[C@H](OC6CCN(c7ccc8c(c7)n(C)c(=O)n8C7CCC(=O)NC7=O)CC6)CC5)CC4)ncn3)c2c1 (single isomer, unassigned) [Compound 60, rel-3-[3-methyl-2-oxo-5-(4-{[(1r,4r)-4-({4-[6-(5-methoxy-1H-indazol-3-yl)pyrimidin-4-yl]piperazin-1-yl}methyl)cyclohexyl]oxy}piperidin-1-yl)-2,3-dihydro-1H-1,3-benzodiazol-1-yl]piperidine-2,6-dione] | 38 |  | 0.67 |  |  | 
3 | Cn1c(=O)n(C2CCC(=O)NC2=O)c2ccc(N3CCC(OC[C@H]4C[C@H](OC5CCN(c6cc(-c7n[nH]c8ccc(OC9(C)CC9)cc78)ncn6)CC5)C4)CC3)cc21 (single isomer, unassigned) [Compound 33, rel-3-[3-methyl-2-oxo-5-(4-{[(1r,3r)-3-[(1-{6-[5-(1-methylcyclopropoxy)-1H-indazol-3-yl]pyrimidin-4-yl}piperidin-4-yl)oxy]cyclobutyl]methoxy}piperidin-1-yl)-2,3-dihydro-1H-1,3-benzodiazol-1-yl]piperidine-2,6-dione] |  |  | 0.14 |  | 62 | 
4 | CC(C)n1c(=O)n(C2CCC(=O)NC2=O)c2ccc(N3CCC(O[C@H]4CC[C@H](CN5CCN(c6cc(-c7n[nH]c8cnc(OC9(C)CC9)cc78)ncn6)CC5)CC4)CC3)cc21 (single isomer, unassigned) [Compound 52, rel-3-[2-oxo-3-(propan-2-yl)-5-(4-{[(1r,4r)-4-[(4-{6-[5-(1-methylcyclopropoxy)-1H-pyrazolo[3,4-c]pyridin-3-yl]pyrimidin-4-yl}piperazin-1-yl)methyl]cyclohexyl]oxy}piperidin-1-yl)-2,3-dihydro-1H-1,3-benzodiazol-1-yl]piperidine-2,6-dione] | 53 |  | 0.28 |  |  | 
5 | Cn1c(=O)n(C2CCC(=O)NC2=O)c2ccc(N3CCC(O[C@H]4CC[C@H](CN5CCN(c6cc(-c7n[nH]c8ccc(OC9(C)CC9)cc78)ncn6)CC5)CC4)CC3)cc21 (some centres unmarked) [Compound 6, 3-[3-methyl-2-oxo-5-(4-{[(1r,4r)-4-[(4-{6-[5-(1-methylcyclopropoxy)-1H-indazol-3-yl]pyrimidin-4-yl}piperazin-1-yl)methyl]cyclohexyl]oxy}piperidin-1-yl)-2,3-dihydro-1H-1,3-benzodiazol-1-yl]piperidine-2,6-dione] | 58 | 58 | 0.17 | 0.17 |  | 
6 | COc1c(N2CCC(CN3CCN(CC4CCN(c5cc(-c6n[nH]c7ccc(OC8(C)CC8)cc67)ncn5)CC4)C(C)(C)C3)CC2)ccc2c1CN(C1CCC(=O)NC1=O)C2=O (centres unmarked) [Comparative Example 5, reference compound] |  | 65 |  | 1.6 |  | 
7 | Cn1c(=O)n(C2CCC(=O)NC2=O)c2ccc(N3CCC(O[C@H]4CC[C@H](CN5CCN(c6cc(-c7n[nH]c8cnc(OC9(C)CC9)cc78)ncn6)CC5)CC4)CC3)cc21 (some centres unmarked) [Compound 1, 3-[3-methyl-2-oxo-5-(4-{[(1r,4r)-4-[(4-{6-[5-(1-methylcyclopropoxy)-1H-pyrazolo[3,4-c]pyridin-3-yl]pyrimidin-4-yl}piperazin-1-yl)methyl]cyclohexyl]oxy}piperidin-1-yl)-2,3-dihydro-1H-1,3-benzodiazol-1-yl]piperidine-2,6-dione] | 53 | 53 | 0.14 | 0.14 |  | > 40
8 | CC(C)Oc1ccc2[nH]nc(-c3cc(N4CCN(C[C@H]5CC[C@H](OC6CCN(c7ccc8c(c7)n(C(C)C)c(=O)n8C7CCC(=O)NC7=O)CC6)CC5)CC4)ncn3)c2c1 (single isomer, unassigned) [Compound 57, rel-3-[2-oxo-3-(propan-2-yl)-5-(4-{[(1r,4r)-4-[(4-{6-[5-(propan-2-yloxy)-1H-indazol-3-yl]pyrimidin-4-yl}piperazin-1-yl)methyl]cyclohexyl]oxy}piperidin-1-yl)-2,3-dihydro-1H-1,3-benzodiazol-1-yl]piperidine-2,6-dione] | 51 |  | 0.64 |  |  | 
9 | CC1(Oc2ccc3[nH]nc(-c4cc(N5CCC(CN6CCN(CC7CCN(c8ccc9ncn(C%10CCC(=O)NC%10=O)c9c8)CC7)CC6)CC5)ncn4)c3c2)CC1 (centres unmarked) [Compound 7, 3-{6-[4-({4-[(1-{6-[5-(1-methylcyclopropoxy)-1H-indazol-3-yl]pyrimidin-4-yl}piperidin-4-yl)methyl]piperazin-1-yl}methyl)piperidin-1-yl]-1H-1,3-benzodiazol-1-yl}piperidine-2,6-dione] | 64 |  | 6.4 |  |  | 
10 | Cn1c(=O)n(C2CCC(=O)NC2=O)c2cccc(N3CCC(CN4CCN(CC5CCN(c6cc(-c7n[nH]c8cnc(OC9(C)CC9)cc78)ncn6)CC5)C(C)(C)C4)CC3)c21 (centres unmarked) [Compound 47, 3-{4-[4-({3,3-dimethyl-4-[(1-{6-[5-(1-methylcyclopropoxy)-1H-pyrazolo[3,4-c]pyridin-3-yl]pyrimidin-4-yl}piperidin-4-yl)methyl]piperazin-1-yl}methyl)piperidin-1-yl]-3-methyl-2-oxo-2,3-dihydro-1H-1,3-benzodiazol-1-yl}piperidine-2,6-dione] | 100 |  | 24 |  |  | 
11 | Cn1c(=O)n(C2CCC(=O)NC2=O)c2ccc(N3CCC(O[C@H]4CC[C@@H](CN5CCN(c6cc(-c7n[nH]c8cnc(OC9(C)CC9)cc78)ncn6)CC5)CC4)CC3)cc21 (some centres unmarked) [Compound 68, 3-[3-methyl-2-oxo-5-(4-{[(1s,4s)-4-[(4-{6-[5-(1-methylcyclopropoxy)-1H-pyrazolo[3,4-c]pyridin-3-yl]pyrimidin-4-yl}piperazin-1-yl)methyl]cyclohexyl]oxy}piperidin-1-yl)-2,3-dihydro-1H-1,3-benzodiazol-1-yl]piperidine-2,6-dione] | 35 |  | 1.2 |  |  | 
12 | Cn1c(=O)n(C2CCC(=O)NC2=O)c2cccc(C#CCOC3CCN(CC4CCN(c5cc(-c6n[nH]c7ccc(OC8(C)CC8)cc67)ncn5)CC4)CC3)c21 (centres unmarked) [Compound 18, 3-{3-methyl-4-[3-({1-[(1-{6-[5-(1-methylcyclopropoxy)-1H-indazol-3-yl]pyrimidin-4-yl}piperidin-4-yl)methyl]piperidin-4-yl}oxy)prop-1-yn-1-yl]-2-oxo-2,3-dihydro-1H-1,3-benzodiazol-1-yl}piperidine-2,6-dione] | 74 |  | 3.9 |  |  | 
13 | Cn1c(=O)n(C2CCC(=O)NC2=O)c2ccc(N3CCC(CN4CCN(CC5CCN(c6cc(-c7n[nH]c8cnc(OC9(C)CC9)cc78)ncn6)CC5)C(C)(C)C4)CC3)cc21 (centres unmarked) [Compound 48, 3-{5-[4-({3,3-dimethyl-4-[(1-{6-[5-(1-methylcyclopropoxy)-1H-pyrazolo[3,4-c]pyridin-3-yl]pyrimidin-4-yl}piperidin-4-yl)methyl]piperazin-1-yl}methyl)piperidin-1-yl]-3-methyl-2-oxo-2,3-dihydro-1H-1,3-benzodiazol-1-yl}piperidine-2,6-dione] | 56 | 56 | 0.14 | 0.14 |  | 
